Data from US6410810B1, “Handling method of (fluoroaryl) borane compound and preparing method of hydrocarbon solution” (Nippon Shokubai Co., Ltd., priority 1997, dated 2002).

Procedure: The cake is analyzed by ^19F-NMR. More specifically, ^19F-NMR is measured under predetermined conditions using p-fluorotoluene as an internal standard reagent. Then, a peak integral of a fluorine atom of p-fluorotoluene, and a peak integral of fluorine atoms at the ortho-position of a pentafluorophenyl group in tris(pentafluorophenyl)borane are computed from the resulting ^19F-NMR chart first, and thence a weight of tris(pentafluorophenyl)borane is computed using the above two peak integrals.
Here, 0.4963 g (purity: 99%, area ratio) of powders of tris(pentafluorophenyl)borane and 16.0878 g of IsoparE are charged to a vessel, in which the air has been displaced by a nitrogen gas satisfactorily, after which the mixture is stirred for 3 hours or so at 28° C. with stirring.
After the solution is cooled to room temperature, the supernatant is analyzed in the same manner as Example 1 above using ^19F-NMR.

concentration of tris(pentafluorophenyl)borane in supernatant: 0.91 wt %
solubility with respect to IsoparE: 0.91 wt %
temperature at which completely dissolved into IsoparE (0.4963 g powders in 16.0878 g IsoparE, heated): 87 °C
purity after dissolving with heating (stability) (3 wt %): 83.0 % (area ratio)
temperature at which the solution starts to crystallize on cooling (IsoparE solution allowed to stand and cooled): 63 °C
SMILES: Fc1c(F)c(F)c(B(c2c(F)c(F)c(F)c(F)c2F)c2c(F)c(F)c(F)c(F)c2F)c(F)c1F [tris(pentafluorophenyl)borane]
dissolution into IsoparE (0.4963 g powders in 16.0878 g IsoparE, stirred 3 hours or so at 28° C.): does not dissolve into IsoparE completely
